# Measurements from US9981975B2, “Pyrrolotriazine compounds as tam inhibitors” (Incyte Corporation, priority 2016, dated 2018).
# Assays:
# Format in all cases: biochemical
# phosphor-Axl = phosphor-Axl (Homo sapiens (Human), UniProt P30530); assay: TAM Enzymatic Assay (HTRF), Axl; details: recombinant autophosphorylated Axl, 60 min, room temperature
# c-Mer = c-Mer (Homo sapiens (Human), UniProt Q12866); assay: TAM Enzymatic Assay (HTRF), Mer; details: 60 min, room temperature
# Description: The kinase assay buffer contained 50 mM HEPES, pH7.5, 10 mM MgCl2, 1 mM EGTA, 0.01% NP-40 and 2 mM DTT. 0.1 ul test compounds dissolved in DMSO were transferred from compound plates to white 384-well assay plates (Greiner […] plates). […] 4 ul enzyme solution (or assay buffer for the enzyme blank) was added to the appropriate wells in each plate, and then 4 ul/well substrate solution was added to initiate the reaction. The plate was protected from light and incubated at room temperature for 60 min. […] The plate was incubated for 1 h at room temperature, and HTRF (homogenous time resolved fluorescence) signal was measured on a PHERAstar FS plate reader (BMG labtech). Percentage of inhibition was calculated for each concentration and IC50 value was generated from curve fitting with GraphPad Prism software.
# Tyro3 = Tyro3 (Homo sapiens (Human), UniProt Q06418); assay: TAM Enzymatic Assay (HTRF), Tyro3; details: Tyro3, 60 min, room temperature
# Summary of the method: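 HTRF kinase assay in 50 mM HEPES pH 7.5, 10 mM MgCl2, 1 mM EGTA, 0.01% NP-40, 2 mM DTT; compound in DMSO pre-dispensed, enzyme added, reaction started with substrate, 60 min at room temperature in the dark.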
# phosphor-Axl, sequence (P30530 26-894): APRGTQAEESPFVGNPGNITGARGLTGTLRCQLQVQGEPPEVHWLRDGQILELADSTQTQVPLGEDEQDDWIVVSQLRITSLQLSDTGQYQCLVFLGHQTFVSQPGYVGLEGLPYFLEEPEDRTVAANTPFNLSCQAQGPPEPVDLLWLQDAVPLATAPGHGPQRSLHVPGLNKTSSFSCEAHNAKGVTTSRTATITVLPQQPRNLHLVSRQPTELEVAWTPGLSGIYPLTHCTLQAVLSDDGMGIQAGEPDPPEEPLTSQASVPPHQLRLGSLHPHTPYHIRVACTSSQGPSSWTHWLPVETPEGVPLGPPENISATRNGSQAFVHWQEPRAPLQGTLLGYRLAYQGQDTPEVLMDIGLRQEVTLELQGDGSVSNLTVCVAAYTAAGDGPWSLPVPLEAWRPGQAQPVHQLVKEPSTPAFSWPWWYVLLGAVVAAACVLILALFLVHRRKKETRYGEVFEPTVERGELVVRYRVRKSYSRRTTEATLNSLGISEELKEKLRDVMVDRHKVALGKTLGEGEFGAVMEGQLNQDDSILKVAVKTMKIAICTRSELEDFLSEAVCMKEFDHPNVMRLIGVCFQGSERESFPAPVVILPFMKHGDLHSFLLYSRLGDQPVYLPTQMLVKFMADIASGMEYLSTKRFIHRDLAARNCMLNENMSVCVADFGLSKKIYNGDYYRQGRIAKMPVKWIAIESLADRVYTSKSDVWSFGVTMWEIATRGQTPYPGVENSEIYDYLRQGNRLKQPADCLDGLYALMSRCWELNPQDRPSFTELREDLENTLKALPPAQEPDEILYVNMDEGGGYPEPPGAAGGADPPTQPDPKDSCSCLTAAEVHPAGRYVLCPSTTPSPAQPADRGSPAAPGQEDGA
# Tyro3, sequence (Q06418 41-890): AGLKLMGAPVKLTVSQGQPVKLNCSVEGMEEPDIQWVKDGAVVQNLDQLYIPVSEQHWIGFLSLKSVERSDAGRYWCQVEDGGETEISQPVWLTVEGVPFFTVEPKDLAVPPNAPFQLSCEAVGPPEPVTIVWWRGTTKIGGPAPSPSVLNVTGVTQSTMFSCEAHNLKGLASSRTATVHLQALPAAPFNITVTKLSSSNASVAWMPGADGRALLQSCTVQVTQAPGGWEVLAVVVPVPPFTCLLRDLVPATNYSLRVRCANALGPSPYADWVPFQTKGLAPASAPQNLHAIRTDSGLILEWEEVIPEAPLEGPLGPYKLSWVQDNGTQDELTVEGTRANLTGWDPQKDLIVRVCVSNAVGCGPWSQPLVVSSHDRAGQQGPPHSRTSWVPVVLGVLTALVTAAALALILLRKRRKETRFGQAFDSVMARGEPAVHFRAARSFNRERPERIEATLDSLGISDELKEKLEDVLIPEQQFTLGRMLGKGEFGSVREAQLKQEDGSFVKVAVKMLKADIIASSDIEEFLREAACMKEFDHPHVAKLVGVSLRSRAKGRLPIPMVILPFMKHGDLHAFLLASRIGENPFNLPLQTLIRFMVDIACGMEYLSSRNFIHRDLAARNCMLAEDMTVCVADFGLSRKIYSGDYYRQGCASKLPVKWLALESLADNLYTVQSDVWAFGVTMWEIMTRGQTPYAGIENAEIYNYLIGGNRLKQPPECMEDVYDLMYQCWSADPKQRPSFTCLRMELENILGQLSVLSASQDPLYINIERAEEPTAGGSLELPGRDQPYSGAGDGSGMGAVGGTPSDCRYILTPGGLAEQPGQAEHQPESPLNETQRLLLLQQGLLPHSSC
# c-Mer, sequence (Q12866 21-999): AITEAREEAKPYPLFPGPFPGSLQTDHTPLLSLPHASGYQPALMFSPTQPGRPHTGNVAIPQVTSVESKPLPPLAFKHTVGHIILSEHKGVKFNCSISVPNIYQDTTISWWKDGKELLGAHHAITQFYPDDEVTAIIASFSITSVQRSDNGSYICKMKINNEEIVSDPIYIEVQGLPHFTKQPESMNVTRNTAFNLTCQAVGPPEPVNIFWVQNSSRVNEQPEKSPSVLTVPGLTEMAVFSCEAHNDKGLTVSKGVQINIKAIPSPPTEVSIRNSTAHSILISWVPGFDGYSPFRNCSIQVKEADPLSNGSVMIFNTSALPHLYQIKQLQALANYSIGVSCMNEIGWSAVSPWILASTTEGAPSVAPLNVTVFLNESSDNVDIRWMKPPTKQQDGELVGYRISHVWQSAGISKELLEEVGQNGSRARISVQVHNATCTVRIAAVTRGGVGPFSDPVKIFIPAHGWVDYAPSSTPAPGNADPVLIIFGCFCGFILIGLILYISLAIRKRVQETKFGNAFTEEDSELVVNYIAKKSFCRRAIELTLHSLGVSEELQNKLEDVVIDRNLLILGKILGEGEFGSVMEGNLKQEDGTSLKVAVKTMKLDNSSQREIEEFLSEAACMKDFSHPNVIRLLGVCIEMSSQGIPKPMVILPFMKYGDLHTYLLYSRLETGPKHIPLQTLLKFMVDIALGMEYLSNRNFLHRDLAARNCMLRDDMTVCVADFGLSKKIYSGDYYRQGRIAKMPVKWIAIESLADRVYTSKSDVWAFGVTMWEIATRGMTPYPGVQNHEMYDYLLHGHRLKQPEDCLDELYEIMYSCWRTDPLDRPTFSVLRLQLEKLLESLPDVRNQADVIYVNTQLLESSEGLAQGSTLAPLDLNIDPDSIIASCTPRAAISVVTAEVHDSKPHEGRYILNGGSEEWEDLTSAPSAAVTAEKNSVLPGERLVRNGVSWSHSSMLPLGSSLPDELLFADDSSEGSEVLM
IC50 (phosphor-Axl) [nM],IC50 (c-Mer) [nM],IC50 (Tyro3) [nM],Structure (SMILES)
≤ 5,≤ 5,10 to 100,"Cc1c(CC#N)cc(C(=O)Nc2ccc(-c3cc(C4CCN(C(=O)C(C)C)CC4)n4ncnc(N)c34)cc2)c(=O)n1-c1cncc(F)c1 [Example 102, N-(4-(4-Amino-7-(1-isobutyrylpiperidin-4-yl)pyrrolo[2,1-f][1,2,4]triazin-5-yl)phenyl)-5-(cyanomethyl)-5′-fluoro-6-methyl-2-oxo-2H-[1,3′-bipyridine]-3-carboxamide]"
≤ 5,≤ 5,5 to 10,Nc1ncnn2c(C3CCN(CCO)CC3)cc(-c3ccc(NC(=O)c4cccn(-c5ccc(F)cc5)c4=O)cc3F)c12 [Example 55]
≤ 5,≤ 5,> 100,"N#C[C@H]1CC[C@@H](c2cc(-c3ccc(NC(=O)c4cccn(-c5ccccc5)c4=O)cc3)c3c(N)ncnn32)CC1 [Example 28, N-{4-[4-Amino-7-(cis-4-cyanocyclohexyl)pyrrolo[2,1-f][1,2,4]triazin-5-yl]phenyl}-2-oxo-1-phenyl-1,2-dihydropyridine-3-carboxamide]"
≤ 5,≤ 5,10 to 100,"Cc1c(-c2cncc(F)c2)c(=O)c(C(=O)Nc2ccc(-c3cc(C4CCN(C(=O)C(C)C)CC4)n4ncnc(N)c34)cc2)cn1C(C)C [Example 98, N-(4-(4-Amino-7-(1-isobutyrylpiperidin-4-yl)pyrrolo[2,1-f][1,2,4]triazin-5-yl)phenyl)-5′-fluoro-1-isopropyl-2-methyl-4-oxo-1,4-dihydro-[3,3′-bipyridine]-5-carboxamide]"
≤ 5,≤ 5,5 to 10,Cc1c(-c2ncccn2)cc(C(=O)Nc2ccc(-c3cc(C4CCN(C)CC4)n4ncnc(N)c34)cc2)c(=O)n1-c1ccccc1 [Example 109]
≤ 5,≤ 5,> 100,"Cc1c(-c2ncco2)c(=O)c(C(=O)Nc2ccc(-c3cc(C4CCN(C(=O)C(C)C)CC4)n4ncnc(N)c34)cc2)cn1C1CC1 [Example 119, N-(4-(4-Amino-7-(1-isobutyrylpiperidin-4-yl)pyrrolo[2,1-f][1,2,4]triazin-5-yl)phenyl)-1-cyclopropyl-6-methyl-5-(oxazol-2-yl)-4-oxo-1,4-dihydropyridine-3-carboxamide]"
≤ 5,≤ 5,10 to 100,"CC(C)C(=O)N1CCC(c2cc(-c3ccc(NC(=O)c4nn(C(C)C)c(=O)n(-c5ccccc5)c4=O)cc3)c3c(N)ncnn23)CC1 [Example 96, N-(4-(4-Amino-7-(1-isobutyrylpiperidin-4-yl)pyrrolo[1,2-f][1,2,4]triazin-5-yl)phenyl)-2-isopropyl-3,5-dioxo-4-phenyl-2,3,4,5-tetrahydro-1,2,4-triazine-6-carboxamide]"
≤ 5,≤ 5,≤ 5,"Nc1ncnn2c1c(-c1ccc(NC(=O)c3cccn(-c4ccc(F)cc4)c3=O)cc1F)cc2[C@H]1CC[C@@H](O)CC1 [Example 19, N-{4-[4-Amino-7-(cis-4-hydroxycyclohexyl)pyrrolo[2,1-f][1,2,4]triazin-5-yl]-3-fluorophenyl}-1-(4-fluorophenyl)-2-oxo-1,2-dihydropyridine-3-carboxamide]"
≤ 5,≤ 5,10 to 100,"CC(C)C(=O)N1CCC(c2cc(-c3ccc(NC(=O)c4cc5c(n(-c6cccnc6)c4=O)CC(C)(C)CC5=O)cc3)c3c(N)ncnn23)CC1 [Example 114, N-(4-(4-Amino-7-(1-isobutyrylpiperidin-4-yl)pyrrolo[1,2-f][1,2,4]triazin-5-yl)phenyl)-7,7-dimethyl-2,5-dioxo-1-(pyridin-3-yl)-1,2,5,6,7,8-hexahydroquinoline-3-carboxamide]"
≤ 5,≤ 5,10 to 100,"COCCN1CCC(c2cc(-c3ccc(NC(=O)c4cccn(-c5ccccc5)c4=O)cc3F)c3c(N)ncnn23)CC1 [Example 50, N-(4-{4-Amino-7-[1-(2-methoxyethyl)piperidin-4-yl]pyrrolo[2,1-f][1,2,4]triazin-5-yl}-3-fluorophenyl)-2-oxo-1-phenyl-1,2-dihydropyridine-3-carboxamide]"
≤ 5,≤ 5,10 to 100,"CC(C)C(=O)N1CCC(c2cc(-c3ccc(NC(=O)c4cn(C(C)C)c(=O)n(-c5ccccc5)c4=O)cc3)c3c(N)ncnn23)CC1 [Example 63, N-(4-(4-Amino-7-(1-isobutyrylpiperidin-4-yl)pyrrolo[1,2-f][1,2,4]triazin-5-yl)phenyl)-1-isopropyl-2,4-dioxo-3-phenyl-1,2,3,4-tetrahydropyrimidine-5-carboxamide]"
≤ 5,≤ 5,> 100,"CN(C)C(=O)N1CCC(c2cc(-c3ccc(NC(=O)c4cccn(-c5ccccc5)c4=O)cc3)c3c(N)ncnn23)CC1 [Example 44, N-[4-(4-Amino-7-{1-[(dimethylamino)carbonyl]piperidin-4-yl}pyrrolo[2,1-f][1,2,4]triazin-5-yl)phenyl]-2-oxo-1-phenyl-1,2-dihydropyridine-3-carboxamide]"
≤ 5,≤ 5,10 to 100,"Cc1c(-c2cccc(C#N)c2)c(=O)c(C(=O)Nc2ccc(-c3cc(C4CCN(C(=O)C(C)C)CC4)n4ncnc(N)c34)cc2)cn1C(C)C [Example 99, N-(4-(4-Amino-7-(1-isobutyrylpiperidin-4-yl)pyrrolo[2,1-f][1,2,4]triazin-5-yl)phenyl)-5-(3-cyanophenyl)-1-isopropyl-6-methyl-4-oxo-1,4-dihydropyridine-3-carboxamide]"

# The next lines start with the molecule.
Structure (SMILES),IC50 (phosphor-Axl) [nM],IC50 (c-Mer) [nM],IC50 (Tyro3) [nM]
"CCn1cc(C(=O)Nc2ccc(-c3cc(C4CCN(C(=O)[C@@H](C)O)CC4)n4ncnc(N)c34)cc2)c(=O)n(-c2ccc(F)cc2)c1=O [Example 79, (R)—N-(4-(4-Amino-7-(1-(2-hydroxypropanoyl)piperidin-4-yl)pyrrolo[1,2-f][1,2,4]triazin-5-yl)phenyl)-1-ethyl-3-(4-fluorophenyl)-2,4-dioxo-1,2,3,4-tetrahydropyrimidine-5-carboxamide]",≤ 5,≤ 5,10 to 100
"CCc1cc(-c2ccc(NC(=O)c3cccn(Cc4ccccc4)c3=O)cc2)c2c(N)ncnn12 [Example 5, N-[4-(4-Amino-7-ethylpyrrolo[2,1-f][1,2,4]triazin-5-yl)phenyl]-1-benzyl-2-oxo-1,2-dihydropyridine-3-carboxamide]",> 100,> 100,> 100
"Nc1ncnn2c(C3CCOCC3)cc(-c3ccc(NC(=O)c4cccn(-c5ccc(F)cc5)c4=O)cc3F)c12 [Example 16, N-{4-[4-Amino-7-(tetrahydro-2H-pyran-4-yl)pyrrolo[2,1-f][1,2,4]triazin-5-yl]-3-fluorophenyl}-1-(4-fluorophenyl)-2-oxo-1,2-dihydropyridine-3-carboxamide]",≤ 5,≤ 5,10 to 100
"Cc1c(Br)cc(C(=O)Nc2ccc(-c3cc(C4CCN(C(=O)C(C)C)CC4)n4ncnc(N)c34)cc2)c(=O)n1-c1cccnc1 [Example 130, N-(4-(4-Amino-7-(1-isobutyrylpiperidin-4-yl)pyrrolo[2,1-f][1,2,4]triazin-5-yl)phenyl)-5-bromo-6-methyl-2-oxo-2H-[1,3′-bipyridine]-3-carboxamide]",≤ 5,≤ 5,> 100
"CC(C)C(=O)N1CCC(c2cc(-c3ccc(NC(=O)c4cn(C(C)C)c(=O)n(-c5ccn(C)n5)c4=O)cc3)c3c(N)ncnn23)CC1 [Example 88, N-(4-(4-Amino-7-(1-isobutyrylpiperidin-4-yl)pyrrolo[2,1-f][1,2,4]triazin-5-yl)phenyl)-1-isopropyl-3-(1-methyl-1H-pyrazol-3-yl)-2,4-dioxo-1,2,3,4-tetrahydropyrimidine-5-carboxamide]",≤ 5,≤ 5,10 to 100
CS(=O)(=O)N1CCC(c2cc(-c3ccc(NC(=O)c4cccn(-c5ccc(F)cc5)c4=O)cc3F)c3c(N)ncnn23)CC1 [Example 43],≤ 5,≤ 5,10 to 100
"CC(C)C(=O)N1CCC(c2cc(-c3ccc(NC(=O)c4cnc(-c5cccnc5)n(-c5ccccc5)c4=O)cc3)c3c(N)ncnn23)CC1 [Example 116, N-{4-[4-Amino-7-(1-isobutyrylpiperidin-4-yl)pyrrolo[2,1-f][1,2,4]triazin-5-yl]phenyl}-6-oxo-1-phenyl-2-pyridin-3-yl-1,6-dihydropyrimidine-5-carboxamide]",≤ 5,≤ 5,10 to 100
"Nc1ncnn2c(C3CCNCC3)cc(-c3ccc(NC(=O)c4cccn(-c5ccccc5)c4=O)cc3F)c12 [Example 34, N-[4-(4-Amino-7-piperidin-4-ylpyrrolo[2,1-f][1,2,4]triazin-5-yl)-3-fluorophenyl]-2-oxo-1-phenyl-1,2-dihydropyridine-3-carboxamide]",≤ 5,≤ 5,10 to 100
"Cc1c(Br)cc(C(=O)Nc2ccc(-c3cc(C4CCN(C(=O)C(C)C)CC4)n4ncnc(N)c34)cc2)c(=O)n1-c1ccccn1 [Example 118, N-(4-(4-Amino-7-(1-isobutyrylpiperidin-4-yl)pyrrolo[2,1-f][1,2,4]triazin-5-yl)phenyl)-5-bromo-6-methyl-2-oxo-2H-[1,2′-bipyridine]-3-carboxamide]",≤ 5,≤ 5,> 100
